Data as given in patent publication US20160271209A1, “ANTIBACTERIAL COMPOSITION” (ECO FRIENDLY INSTITUTE LIMITED., priority 2012, published 2016).

How the values were obtained:
[1] = test system: Escherichia coli NBRC 3301 strain; assay: Antibacterial activity against Escherichia coli (1): contact for days, colony count; assay type: cell-based; conditions: Table 2, nisin 10 μg/mL
Method: The Escherichia coli NBRC 3301 strain, which is a Gram-negative bacterium, was cultured to the logarithmic phase in Tryptic Soy Broth (TSB). The culture medium was diluted with sterilized purified water to adjust the number of bacteria (10^3 to 10^4 CFU/mL). Test solutions were prepared by dilution with sterilized purified water so as to contain nisin (10 μg/mL), the 5-fold concentrate of Prunus mume extract (3 mg/mL, 15 mg/mL as the extract before concentration), or nisin (10 μg/mL)+5-fold concentrate of Prunus mume extract (3 mg/mL, 15 mg/mL as the extract before concentration). The diluted culture medium (10 μL) was added to each test solution (1 mL). After contact of the bacterium with the test solution at room temperature for a predetermined number of days (0 to 7 days), the mixture (100 μL) was plated on TBS agar medium. The bacterium was cultured for 48 hours, and then the number of the colonies formed on the plate was counted. The results are shown in Tables 2 and 3 mentioned below and FIGS. 3 and 4. In Tables 2 and 3, “D+n” means the number of days (n days) for the contact of the diluted culture medium and the test solution (the same shall apply to the following descriptions).

[2] = test system: Gram-positive bacteria including acetic acid bacteria; conditions: background statement; cited from earlier work
[3] = test system: Porphyromonas gingivalis W83 strain; assay: Antibacterial activity against Porphyromonas gingivalis (2): growth inhibition effect by turbidity at 600 nm; assay type: cell-based; conditions: FIG. 2, 48 hours culture
Method: The Porphyromonas gingivalis W83 strain, a causative bacterium of periodontal disease, was cultured to the logarithmic phase in the brain heart infusion medium containing hemin (5 mg/L) and metidione (1 mg/L). The culture medium was diluted with a citrate buffer containing 0.8% NaCl to adjust the number of bacteria (10^6 CFU/mL). Test solutions were prepared by dilution with sterilized purified water so as to contain the 5-fold concentrate of Prunus mume extract (10 mg/mL, 50 mg/mL as the extract before concentration), nisin (20 μg/mL), or the 5-fold concentrate of Prunus mume extract (10 mg/mL, 50 mg/mL as the extract before concentration)+nisin ([…]), and serially diluted 2-fold on a 96-well plate. To each well (containing 50 μL of test solution), the brain heart infusion medium (140 μL) containing hemin (5 mg/L) and metidione (1 mg/L) and the cell suspension (10 μL) were added. After culture for 48 hours, turbidity of the culture was measured at 600 nm. For evaluation, growth inhibition effect (%) was calculated according to the equation: Growth inhibition effect (%)=(1−(Turbidity observed with test solution)/(Turbidity observed with sterilized water))×100.

[4] = test system: Porphyromonas gingivalis ATCC 33277 strain; assay: Antibacterial activity against Porphyromonas gingivalis (1): 1 minute contact, colony count; assay type: cell-based
Method: The Porphyromonas gingivalis ATCC 33277 strain, a causative bacterium of periodontal disease, was cultured to the logarithmic phase in Enriched Tryptic Soy Broth (e-TSB). The culture medium was diluted with a citrate buffer (pH 4.5) containing 0.8% NaCl to adjust the number of bacteria (10^6 CFU/mL). Test solutions were prepared by dilution with sterilized purified water so as to contain the 5-fold concentrate of Prunus mume extract (3 mg/mL, 15 mg/mL as the extract before concentration), nisin (150 μg/mL), or nisin (150 μg/mL)+5-fold concentrate of Prunus mume extract (3 mg/mL, 15 mg/mL as the extract before concentration). The diluted culture medium (100 μL) was added to each test solution (5 mL). After contact of the bacterium with the test solution for 1 minute at room temperature, the mixture (100 μL) was added to and mixed with the e-TSB medium (5 mL), and the mixture (100 μL) was immediately plated on a blood agar medium under an anaerobic condition. The bacterium was cultured for 5 days under an anaerobic condition, and then the number of the colonies formed on the plate was counted. The results were as shown in Table 1 mentioned below and FIG. 1. In Table 1, “CFU” means colony-forming unit (the same shall apply to the following descriptions).

For nisin A, the “Number of bacteria, D + 0” value ([1]; 0 days contact) was 4,540 CFU/mL, the “Number of bacteria, D + 1” value ([1]; 1 day contact) was 1,740 CFU/mL and the “Number of bacteria, D + 3” value ([1]; 3 days contact) was 1,430 CFU/mL. The “Number of bacteria, D + 7” value ([1]; 7 days contact) was 290 CFU/mL, the “concentration showing growth-suppressing effect” value [2] was “about 1 ppb” and the “growth inhibition effect (in words)” value ([3]; 2-fold serial dilution, overall) was “extremely low”. The “growth inhibition effect (in words)” value ([3]; at the 1/32 concentration (32-fold dilution)) was “did not show any growth inhibition effect at all”, the “antibacterial activity against Porphyromonas gingivalis (in words)” value ([4]; Example 1, Table 1 and FIG. 1) was “did not show any antibacterial activity at all” and the “Number of bacteria, After contact” value ([4]; after contact for 1 minute at room temperature, nisin 150 μg/mL, Prunus mume extract 3 mg/mL (5-fold concentrate)) was 1.0 × 10^6 CFU/mL. For the same substance, the “Number of bacteria, Before contact” value ([4]; before contact, nisin 150 μg/mL, Prunus mume extract 3 mg/mL (5-fold concentrate)) was 1.0 × 10^6 CFU/mL.
